Source: patent publication US9708314B2, “Heterocyclic amide compound” (NISSAN CHEMICAL INDUSTRIES, LTD., priority 2013, dated 2017)

Experiments:
Assay type in all cases: in vivo
[1] = test system: Monochoria vaginalis; experiment: Test Example 1: herbicidal activity, application before weed generation in submerged conditions; details: Application herbicide amount 320 g/ha; Seventeenth Table
In short: (§1)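 Alluvial soil in Wagner pots flooded to 4 cm water depth; weed seeds sown and 2.5 leaf stage rice seedlings transplanted. Emulsion diluted in water applied to water surface on sowing day at stated g/ha. Greenhouse 25° C. to 30° C.; effects scored 0–5 by herbicidal ratio after three weeks.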

[2] = test system: Echinochloa oryzacola Vasing.; experiment: as above; details: Application herbicide amount 320 g/ha; Seventeenth Table
In short: as §1

[3] = test system: Scirpus juncoides; experiment: as above; details: Application herbicide amount 320 g/ha; Seventeenth Table
In short: as §1

[4] = test system: Beta vulgaris ssp. vulgaris; experiment: Test Example 4: effect on crop by application to foliage (diluvial soil, plastic box); details: application to foliage, application herbicide amount 320 g/ha
In short: (§2)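 Scores run from 0 (herbicidal ratio ≤5%) to 5 (≥90%, almost fully withered) and were assessed three weeks after foliar spraying. Seedlings had been raised for 14 days at 25-30° C in sterilized diluvial soil before treatment, with the emulsion diluted in water to the stated g/ha dose.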

[5] = test system: directly sowed Oryza sativa; experiment: as above; details: application to foliage, application herbicide amount 320 g/ha
In short: as §2

[6] = test system: Brassica campestris L.; experiment: as above; details: application to foliage, application herbicide amount 320 g/ha
In short: as §2

[7] = test system: Glycine max; experiment: as above; details: application to foliage, application herbicide amount 320 g/ha
In short: as §2

[8] = test system: Zea mays; experiment: as above; details: application to foliage, application herbicide amount 320 g/ha
In short: as §2

[9] = test system: Triticum aestivum; experiment: as above; details: application to foliage, application herbicide amount 320 g/ha
In short: as §2

[10] = test system: transplanted Oryza sativa; experiment: Test Example 1: effect on crop, application before weed generation in submerged conditions; details: Application herbicide amount 320 g/ha; Seventeenth Table
In short: as §1

Compound | C: Monochoria vaginalis (herbicidal effect grade) [1] | A: Echinochloa oryzicola Vasing. (herbicidal effect grade) [2] | B: Scirpus juncoides (herbicidal effect grade) [3] | f (Beta vulgaris ssp. vulgaris) effect on crop [4] | d (directly sowed Oryza sativa) effect on crop [5] | g (Brassica campestris L.) effect on crop [6] | c (Glycine max) effect on crop [7] | b (Zea mays) effect on crop [8] | e (Triticum aestivum) effect on crop [9] | a: transplanted Oryza sativa (effect on crop grade) [10]
CCc1nnc(NC(=O)c2ccc(C(F)(F)F)n3c(C(C)C)nnc23)o1 [1-005] | 4 (Herbicidal ratio of 70% or more and less than 90%) | 5 (Herbicidal ratio of 90% or more (almost completely withered)) | 4 (Herbicidal ratio of 70% or more and less than 90%) | 0 (Herbicidal ratio of 5% or less (almost no effect)) | 0 (Herbicidal ratio of 5% or less (almost no effect)) | 0 (Herbicidal ratio of 5% or less (almost no effect)) | 1 (Herbicidal ratio of 5% or more and less than 20%) | 0 (Herbicidal ratio of 5% or less (almost no effect)) | 0 (Herbicidal ratio of 5% or less (almost no effect)) | 0 (Herbicidal ratio of 5% or less (almost no effect))
CCC(CC)c1nnc2c(C(=O)Nc3nnc(C)o3)ccc(C(F)(F)F)n12 [1-011] | 5 (Herbicidal ratio of 90% or more (almost completely withered)) | 5 (Herbicidal ratio of 90% or more (almost completely withered)) | 4 (Herbicidal ratio of 70% or more and less than 90%) | 5 (Herbicidal ratio of 90% or more (almost completely withered)) | 4 (Herbicidal ratio of 70% or more and less than 90%) | 3 (Herbicidal ratio of 40% or more and less than 70%) | 3 (Herbicidal ratio of 40% or more and less than 70%) | 0 (Herbicidal ratio of 5% or less (almost no effect)) | 0 (Herbicidal ratio of 5% or less (almost no effect)) | 1 (Herbicidal ratio of 5% or more and less than 20%)
Cc1nnc(NC(=O)c2ccc(C(F)(F)F)n3c(-c4ccccc4)nnc23)o1 [1-012] | 4 (Herbicidal ratio of 70% or more and less than 90%) | 5 (Herbicidal ratio of 90% or more (almost completely withered)) | 3 (Herbicidal ratio of 40% or more and less than 70%) | 3 (Herbicidal ratio of 40% or more and less than 70%) | 2 (Herbicidal ratio of 20% or more and less than 40%) | 4 (Herbicidal ratio of 70% or more and less than 90%) | 1 (Herbicidal ratio of 5% or more and less than 20%) | 0 (Herbicidal ratio of 5% or less (almost no effect)) | 0 (Herbicidal ratio of 5% or less (almost no effect)) | 0 (Herbicidal ratio of 5% or less (almost no effect))
Cc1nnc(NC(=O)c2ccc(C(F)(F)F)n3c(Br)nnc23)o1 [1-014] | 3 (Herbicidal ratio of 40% or more and less than 70%) | 5 (Herbicidal ratio of 90% or more (almost completely withered)) | 4 (Herbicidal ratio of 70% or more and less than 90%) | 5 (Herbicidal ratio of 90% or more (almost completely withered)) | 3 (Herbicidal ratio of 40% or more and less than 70%) | 2 (Herbicidal ratio of 20% or more and less than 40%) | 0 (Herbicidal ratio of 5% or less (almost no effect)) | 1 (Herbicidal ratio of 5% or more and less than 20%) | 1 (Herbicidal ratio of 5% or more and less than 20%) | 0 (Herbicidal ratio of 5% or less (almost no effect))
COCc1nnc2c(C(=O)Nc3nnc(C)o3)ccc(C(F)(F)F)n12 [1-015] | 3 (Herbicidal ratio of 40% or more and less than 70%) | 2 (Herbicidal ratio of 20% or more and less than 40%) | 3 (Herbicidal ratio of 40% or more and less than 70%) | 5 (Herbicidal ratio of 90% or more (almost completely withered)) | 4 (Herbicidal ratio of 70% or more and less than 90%) | 4 (Herbicidal ratio of 70% or more and less than 90%) | 1 (Herbicidal ratio of 5% or more and less than 20%) | 0 (Herbicidal ratio of 5% or less (almost no effect)) | 2 (Herbicidal ratio of 20% or more and less than 40%) | 0 (Herbicidal ratio of 5% or less (almost no effect))
COc1ccc(-c2nnc3c(C(=O)Nc4nnc(C)o4)ccc(C(F)(F)F)n23)cc1 [1-016] | 0 (Herbicidal ratio of 5% or less (almost no effect)) | 4 (Herbicidal ratio of 70% or more and less than 90%) | 0 (Herbicidal ratio of 5% or less (almost no effect)) | 5 (Herbicidal ratio of 90% or more (almost completely withered)) | 0 (Herbicidal ratio of 5% or less (almost no effect)) | 3 (Herbicidal ratio of 40% or more and less than 70%) | 0 (Herbicidal ratio of 5% or less (almost no effect)) | 0 (Herbicidal ratio of 5% or less (almost no effect)) | 0 (Herbicidal ratio of 5% or less (almost no effect)) | 0 (Herbicidal ratio of 5% or less (almost no effect))
Cc1nnc(NC(=O)c2ccc(C(F)(F)F)n3c(-c4ccc(Cl)cc4)nnc23)o1 [1-017] | 0 (Herbicidal ratio of 5% or less (almost no effect)) | 3 (Herbicidal ratio of 40% or more and less than 70%) | 2 (Herbicidal ratio of 20% or more and less than 40%) | 5 (Herbicidal ratio of 90% or more (almost completely withered)) | 3 (Herbicidal ratio of 40% or more and less than 70%) | 3 (Herbicidal ratio of 40% or more and less than 70%) | 0 (Herbicidal ratio of 5% or less (almost no effect)) | 0 (Herbicidal ratio of 5% or less (almost no effect)) | 0 (Herbicidal ratio of 5% or less (almost no effect)) | 0 (Herbicidal ratio of 5% or less (almost no effect))
